Laboratory results: patent US5250527A, “Pyridyl containing benzimidazoles, compositions and use” (SmithKline & French Laboratories Limited, priority 1988, dated 1993)

Assays:
H^+ -K^+ -ATPase = molecular target: T1, H^+ -K^+ -ATPase (Sus scrofa, UniProt P19156); assay: K+ stimulated ATPase activity; format: biochemical; settings: at pH 6.1 and 7.4; lyophilised gastric vesicles of pig fundic mucosa
T1 construct: alpha-beta complex
Method: The effects of a single high concentration (1 mM) of a compound of structure (I) on H^+ -K^+ ATPase were determined at pH 6.1 and pH 7.4.
Compounds of structure (I) were pre-incubated with H^+ -K^+ -ATPase preparation 30 μg protein/ml from (i) in 10 mM Pipes/Tris buffer pH 6.1 and pH 7.4.
After 30 min at 37° the preincubation was diluted 5-fold with assay buffer to start the ATPase reaction. The conditions in the assay are 100 mM Pipes/Tris, 2 mM MgCl2, 10 mM KCl, 5 μgml nigericin, 2 mM Na2 ATP, pH 7.0.
The effect of the same concentration of compound of structure (I) (preincubated with H^+ -K^+ -ATPase preparation at pH 7.4 as described above) on the recovery of 100 nmole of inorganic phosphate was also determined.
Compounds of structure (I) were initially dissolved in dimethyl sulphoxide, polyethylene glycol (Type 400) or Pipes/Tris buffer.
All data refer to the concentration of compound present in the preincubation before dilution with assay buffer.

[1] = system: rabbit intact gastric glands; assay: Aminopyrine (AP) accumulation in intact gastric glands; format: cell-based, New Zealand white rabbits; settings: Oryctolagus cuniculus, 0.5 h, inhibition of aminopyrine accumulation, dibutyryl cAMP stimulated, pH 7.4, 30 min
Method: The effect of a single concentration (100 μm) of a compound of structure (I) on dibutyryl cAMP stimulated AP […] in rabbit intact gastric glands was determined. Preferred compounds of structure (I) were tested over a range of concentrations to determine the IC50 value.
Intact gastric glands were prepared from New Zealand white rabbits by the method of Berghindh et al. (Acta. Physio. Scand. 96, 150, 1976). Gastric mucosal scrapings were digested at 37° C. for 45-60 min. with Collagenase (100 U. Type 1. Sigma), and glands harvested by coarse filtration and sedimentation.
Test compound was incubated with glands and 300 μM dibutyryl CAMP for 30 minutes at […]. Incubating medium contained 132.5 mM NaCl, 5.4 Mm KCl, 1.0 mM NaH2 PO4. 5.0 mM Na2 HPO4, 1.2 mM MgSO4, 1.0 mM CaCl2, 11.1 mM glucose, 2.0 mg/ml rabbit albumin, 10 μg/ml phenol red, approximately 0.3 μM[^14 C] aminopyrine (110 mCi/mmole), pH 7.4.
After incubation, glands were centrifuged and the supernatant removed. The glands were dried, weighed and dissolved in NaOH. The distribution of radioactivity between the supernatant and glands is then used to calculate the AP ratio after the method of Berglindh et al. (Acta. Physiol. Scand. 97, 401, 1976).
The IC50 value is the amount of compound required to inhibit the […] accumulation of aminopyrine by 50%.

[2] = system: Histamine-Stimulated Gastric Acid Secretion; assay: Dog: Conscious Heidenhain Pouch (Histamine-Stimulated Gastric Acid Secretion); format: in vivo; settings: Canis lupus familiaris, intravenous
Description: B. Dog: Conscious Heidenhain Pouch (Histamine-Stimulated Gastric Acid Secretion)
Using dogs surgically prepared with Heidenhain pouches 1 to 3 years previously, inhibitory ED50 values against histamine stimulated gastric acid secretion after intravenous administration were obtained.

[3] = system: Histamine Stimulated Gastric Acid Secretion; assay: Rat: Lumen Perfumed Stomach (Histamine Stimulated Gastric Acid Secretion); format: in vivo; settings: i.v.
Description: C. Rat: Lumen Perfumed Stomach (Histamine Stimulated Gastric Acid Secretion)
Using a modification of the procedure described by Ghosh and Schild (Br. J. Pharmacology, 13, 54, 1958), ED50 values after either intraduodenal (i.d) or intravenous (i.v) administration were obtained as follows: […]

T1 sequence (P19156 whole entry): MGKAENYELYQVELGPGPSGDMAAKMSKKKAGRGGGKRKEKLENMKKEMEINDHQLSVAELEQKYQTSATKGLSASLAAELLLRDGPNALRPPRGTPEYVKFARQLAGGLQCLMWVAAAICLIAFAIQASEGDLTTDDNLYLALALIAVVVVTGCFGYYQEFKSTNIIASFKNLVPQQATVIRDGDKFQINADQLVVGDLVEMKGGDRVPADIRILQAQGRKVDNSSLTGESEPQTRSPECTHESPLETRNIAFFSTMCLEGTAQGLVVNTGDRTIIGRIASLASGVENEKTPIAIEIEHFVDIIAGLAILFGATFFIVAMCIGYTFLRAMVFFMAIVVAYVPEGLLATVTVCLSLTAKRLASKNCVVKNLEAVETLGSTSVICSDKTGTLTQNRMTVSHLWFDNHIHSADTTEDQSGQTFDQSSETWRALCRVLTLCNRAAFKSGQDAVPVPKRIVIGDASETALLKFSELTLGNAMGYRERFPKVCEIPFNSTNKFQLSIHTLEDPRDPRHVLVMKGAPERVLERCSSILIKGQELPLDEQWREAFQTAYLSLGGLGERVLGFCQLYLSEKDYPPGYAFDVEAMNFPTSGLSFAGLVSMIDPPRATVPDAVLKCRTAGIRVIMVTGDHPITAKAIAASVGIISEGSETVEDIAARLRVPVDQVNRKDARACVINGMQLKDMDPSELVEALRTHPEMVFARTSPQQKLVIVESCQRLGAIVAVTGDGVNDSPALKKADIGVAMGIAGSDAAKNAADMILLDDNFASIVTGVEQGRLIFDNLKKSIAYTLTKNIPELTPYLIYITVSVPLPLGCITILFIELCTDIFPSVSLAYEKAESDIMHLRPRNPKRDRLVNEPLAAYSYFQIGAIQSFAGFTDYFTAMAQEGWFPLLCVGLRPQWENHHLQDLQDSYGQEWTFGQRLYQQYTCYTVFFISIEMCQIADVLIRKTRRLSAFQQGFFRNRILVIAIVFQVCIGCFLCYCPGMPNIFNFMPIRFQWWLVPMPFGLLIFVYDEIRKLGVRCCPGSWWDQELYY
T1 sequence (P18434 whole entry partner): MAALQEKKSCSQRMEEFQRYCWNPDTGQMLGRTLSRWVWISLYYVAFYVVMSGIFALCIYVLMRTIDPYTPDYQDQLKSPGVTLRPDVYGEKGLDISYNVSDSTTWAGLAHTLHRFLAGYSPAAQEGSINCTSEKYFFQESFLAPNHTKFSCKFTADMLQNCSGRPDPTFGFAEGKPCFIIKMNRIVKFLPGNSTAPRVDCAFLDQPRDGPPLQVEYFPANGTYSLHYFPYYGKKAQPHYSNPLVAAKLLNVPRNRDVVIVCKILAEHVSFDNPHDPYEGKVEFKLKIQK

Compound	inhibition of potassium stimulated ATPase activity (H^+ -K^+ -ATPase)	IC50 [1] [µM]	ED50 [2] [µmol/kg]	% inhibition at 1 μM/kg [3] [%]
2-(4-piperidino-3-chloro-5-methyl-2-pyridylmethylsulphinyl)-4, 5-difluoromethylenedioxy-(1H)-benzimidazole [Example 24]	found to inhibit potassium stimulated ATPase activity			
COc1ccc2[nH]c([S+]([O-])Cc3cc(N)c(Br)cn3)nc2c1 (stereo not drawn) [Example 2, 2 -(4 -amino-5 -bromo-2 -pyridylmethylsulphinyl)-5 -methoxy-(1H)-benzimidazole]	found to inhibit potassium stimulated ATPase activity	6.6	2.94	
COc1ccc2[nH]c([S+]([O-])Cc3nccc(N4CCOCC4)c3Cl)nc2c1 (stereo not drawn) [Example 4, 2 -(4 -morpholino-3 -chloro-2 -pyridylmethylsulphinyl)-5 -methoxy-(1H)-benzimidazole]	found to inhibit potassium stimulated ATPase activity	11	1	
COc1ccc2[nH]c([S+]([O-])Cc3ncc(C)c(N4CCOCC4)c3Cl)nc2c1 (stereo not drawn) [Example 6, 2 -(4 -morpholino-3 -chloro-5 -methyl-2 -pyridylmethylsulphinyl)-5 -methoxy-(1H)-benzimidazole]	found to inhibit potassium stimulated ATPase activity	16.3	2.2	
COc1ccc2[nH]c([S+]([O-])Cc3ncc(C)c(N4CCCCC4)c3Cl)nc2c1 (stereo not drawn) [Example 8, 2 -(4 -piperidino-3 -chloro-5 -methyl-2 -pyridylmethylsulphinyl)-5 -methoxy-(1H)-benzimidazole]	found to inhibit potassium stimulated ATPase activity	4.2		
COc1ccc2[nH]c([S+]([O-])Cc3nccc(N4CCCCC4)c3Cl)nc2c1 (stereo not drawn) [Example 10, 2 -(4 -piperidino-3 -chloro-2 -pyridylmethylsulphinyl)-5 -methoxy-(1H)-benzimidazole]	found to inhibit potassium stimulated ATPase activity	2	1.2	
COc1ccc2[nH]c([S+]([O-])Cc3nccc(N4CCCC4)c3Cl)nc2c1 (stereo not drawn) [Example 12, 2 -(4 -pyrrolidino-3 -chloro-2 -pyridylmethylsulphinyl)-5 -methoxy-(1H)-benzimidazole]	found to inhibit potassium stimulated ATPase activity	1 to 10		
COc1ccc2[nH]c([S+]([O-])Cc3ncc(C)c(N4CCCC4)c3Cl)nc2c1 (stereo not drawn) [Example 14, 2 -(4 -pyrrolidino-3 -chloro-5 -methyl-2 -pyridylmethylsulphinyl)-5 -methoxy-(1H)-benzimidazole]	found to inhibit potassium stimulated ATPase activity	2.6		
COc1ccc2[nH]c([S+]([O-])Cc3ncc(C)c(N(C)C)c3Cl)nc2c1 (stereo not drawn) [Example 16, 2 -(4 -dimethylamino-3 -chloro-5 -methyl-2 -pyridylmethylsulphinyl)-5 -methoxy-(1H)-benzimidazole]	found to inhibit potassium stimulated ATPase activity	3.7	0.29	
COc1ccc2[nH]c([S+]([O-])Cc3cc(N4CCCCC4)c(Br)cn3)nc2c1 (stereo not drawn) [Example 18, 2-(4-piperidino-5-bromo-2-pyridylmethylsulphinyl)-5-methoxy-(1H)-benzimidazole]	found to inhibit potassium stimulated ATPase activity	1.6		
COc1ccc2[nH]c([S+]([O-])Cc3nccc(N4CCCCC4)c3Br)nc2c1 (stereo not drawn) [Example 20, 2-(4-piperidino-3-bromo-2-pyridylmethylsulphinyl)-5-methoxy-(1H)-benzimidazole]	found to inhibit potassium stimulated ATPase activity	1.3		
COc1ccc2[nH]c([S+]([O-])Cc3ncc(Br)c(N4CCCCC4)c3C)nc2c1 (stereo not drawn) [Example 22, 2-(4-piperidino-5-bromo-3-methyl-2-pyridylmethylsulphinyl) -5-methoxy-(1H)-benzimidazole]	found to inhibit potassium stimulated ATPase activity	9.2		
Cc1cnc(C[S+]([O-])c2nc3cc(OC(F)(F)C(F)F)ccc3[nH]2)c(Cl)c1N1CCCCC1 (stereo not drawn) [Example 23, 2-(4-piperidino-3-chloro-5-methyl-2-pyridylmethylsulphinyl)-5-(1,1,2,2-tetrafluoroethoxy)-(1H)-benzimidazole]	found to inhibit potassium stimulated ATPase activity	1.9		
COc1ccc2[nH]c([S+]([O-])Cc3cc(N(C)C)c(Br)cn3)nc2c1 (stereo not drawn) [Example 25, 2-(4-dimethylamino-5-bromo-2-pyridylmethylsulphinyl)-5-methoxy-(1H)-benzimidazole]	found to inhibit potassium stimulated ATPase activity		0.91	
COc1ccc2[nH]c([S+]([O-])Cc3cc(N4CCCC4)c(Br)cn3)nc2c1 (stereo not drawn) [Example 26, 2-(4-pyrrolidino-5-bromo-2-pyridylmethylsulphinyl)-5-methoxy-(1H)-benzimidazole]	found to inhibit potassium stimulated ATPase activity			
COc1ccc2[nH]c([S+]([O-])Cc3nccc(N4CCOCC4)c3F)nc2c1 (stereo not drawn) [Example 28, 2-(4-morpholino-3-fluoro-2-pyridylmethylsulphinyl)-5-methoxy-(1H)-benzimidazole]			2.75	
COc1ccc2[nH]c([S+]([O-])Cc3cc(N4CCOCC4)c(F)cn3)nc2c1 (stereo not drawn) [Example 30, 2-(4-morpholino-5-fluoro-2-pyridylmethylsulphinyl)-5-methoxy-(1H)-benzimidazole]			5.07	51
COc1ccc2[nH]c([S+]([O-])Cc3nccc(N(C)C)c3F)nc2c1 (stereo not drawn) [Example 32, 2-(4-dimethylamino-3-fluoro-2-pyridylmethylsulphinyl)-5-methoxy-(1H)-benzimidazole]				26
COc1ccc2[nH]c([S+]([O-])Cc3cc(N(C)C)c(F)cn3)nc2c1 (stereo not drawn) [Example 34, 2-(4-dimethylamino-5-fluoro-2-pyridylmethylsulphinyl)-5-methoxy-(1H)-benzimidazole]				37
COc1ccc2[nH]c([S+]([O-])Cc3ncc(F)c(N4CCOCC4)c3C)nc2c1 (stereo not drawn) [Example 36, 2-(4-morpholino-5-fluoro-3-methyl-2-pyridylmethylsulphinyl)-5-methoxy-(1H)-benzimidazole]			2.05	
COc1cc2nc([S+]([O-])Cc3nccc(N4CCOCC4)c3F)[nH]c2cc1OC (stereo not drawn) [Example 38, 2-(4-morpholino-3-fluoro-2-pyridylmethylsulphinyl)-5,6-dimethoxy-(1H)-benzimidazole]				33
COc1cc2[nH]c([S+]([O-])Cc3nccc(N4CCOCC4)c3F)nc2cc1C (stereo not drawn) [Example 40, 2-(4-morpholino-3-fluoro-2-pyridylmethylsulphinyl)-5-methyl-6-methoxy-(1H)-benzimidazole]			2.14	
COc1cc2nc([S+]([O-])Cc3nccc(N(C)C)c3F)[nH]c2cc1OC (stereo not drawn) [Example 42, 2-(4-dimethylamino-3-fluoro-2-pyridylmethylsulphinyl)-5,6-dimethoxy-(1H)-benzimidazole]				46
